Test results: patent US10377718B2, “Apelin receptor (APJ) agonists and uses thereof” (Research Triangle Institute, priority 2014, dated 2019)

The compounds below were run against T1, apelin receptor (APJ) (Homo sapiens, UniProt P35414) (assay: in vitro apelin agonist activity (methods of Giddings et al., Apelin-13 as positive control)). Details: not given.
T1 sequence (P35414 1-380): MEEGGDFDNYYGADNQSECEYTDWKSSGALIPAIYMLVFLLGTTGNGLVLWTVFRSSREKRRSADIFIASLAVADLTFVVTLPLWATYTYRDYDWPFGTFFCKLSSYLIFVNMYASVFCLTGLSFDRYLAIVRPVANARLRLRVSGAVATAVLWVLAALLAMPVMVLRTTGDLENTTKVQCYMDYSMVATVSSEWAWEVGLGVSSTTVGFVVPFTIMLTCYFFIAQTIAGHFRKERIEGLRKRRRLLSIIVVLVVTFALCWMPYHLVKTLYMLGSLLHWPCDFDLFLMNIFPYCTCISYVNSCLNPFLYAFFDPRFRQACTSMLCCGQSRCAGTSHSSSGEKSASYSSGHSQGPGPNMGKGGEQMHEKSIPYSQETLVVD
Assay type: cell-based
Source text: The compounds above were studied for their in vitro activity as apelin agonists using the methods described by Giddings et al. Giddings et al., 2010 Int J High Thro Screen. 1:39-47, the contents of which are hereby incorporated by reference in its entirety.

SMILES	EC50
COc1cccc(OC)c1-c1cc(C(=O)N[C@H](C(=O)O)C2CCCCC2)nn1CC(C)C [compound 169, (S)-2-Cyclohexyl-2-(5-(2,6-dimethoxyphenyl)-1-isobutyl-1H-pyrazole-3-carboxamido)acetic acid]	< 10 µM
COc1cccc(OC)c1-c1cc(C(=O)N[C@@H](CC2CCCCC2)C(=O)O)nn1CC(C)C [compound 204]	< 10 µM

Same assay, conditions: apelin agonist activity, Giddings et al. method; read-out: agonist activity (EC50)

SMILES	EC50
COC(=O)CNC(=O)C[C@H](CC(C)C)NC(=O)c1cc(-c2c(OC)cccc2OCc2ccccc2)n(C2CCCCC2)n1 [compound 127, Methyl 2-((3S)-3-(5-(2-(benzyloxy)-6-methoxyphenyl)-1-cyclohexyl-1H-pyrazole-3-carboxamido)-5-methylhexanamido)acetate]	< 10 µM
COc1cccc(OCc2ccccc2)c1-c1cc(C(=O)N[C@H](CC(=O)NCC(=O)O)CC(C)C)nn1C1CCCCC1 [compound 129, 2-((3S)-3-(5-(2-(Benzyloxy)-6-methoxyphenyl)-1-cyclohexyl-1H-pyrazole-3-carboxamido)-5-methylhexanamido)acetic acid]	< 10 µM
COC(=O)CNC(=O)C[C@H](CC(C)C)NC(=O)c1cc(-c2c(OC)cccc2OC)n(CC(C)C)n1 [compound 130, (S)-Methyl 2-(3-(5-(2,6-dimethoxyphenyl)-1-isobutyl-1H-pyrazole-3-carboxamido)-5-methylhexanamido)acetate]	< 10 µM
COc1cccc(OCc2ccccc2)c1-c1cc(C(=O)N[C@H](CC(=O)NCc2ccccc2)CC(C)C)nn1C1CCCCC1 [compound 132]	< 10 µM
CCCCNC(=O)C[C@H](CC(C)C)NC(=O)c1cc(-c2c(OC)cccc2OCc2ccccc2)n(C2CCCCC2)n1 [compound 133, 5-(2-(Benzyloxy)-6-methoxyphenyl)-N-((S)-1-(butylamino)-5-methyl-1-oxohexan-3-yl)-1-cyclohexyl-1H-pyrazole-3-carboxamide]	< 10 µM
COc1cccc(OCc2ccccc2)c1-c1cc(C(=O)N[C@H](CC(=O)NCc2ncco2)CC(C)C)nn1C1CCCCC1 [compound 134, 5-(2-(Benzyloxy)-6-methoxyphenyl)-1-cyclohexyl-N-((S)-5-methyl-1-((oxazol-2-ylmethyl)amino)-1-oxohexan-3-yl)-1H-pyrazole-3-carboxamide]	< 10 µM
COc1cccc(OCc2ccccc2)c1-c1cc(C(=O)N[C@H](CC(=O)NCC(=O)N(C)C)CC(C)C)nn1C1CCCCC1 [compound 136, 5-(2-(Benzyloxy)-6-methoxyphenyl)-1-cyclohexyl-N-((S)-1-((2-(dimethylamino)-2-oxoethyl)amino)-5-methyl-1-oxohexan-3-yl)-1H-pyrazole-3-carboxamide]	< 10 µM
COC(=O)CNC(=O)C[C@H](CC(C)C)NC(=O)c1cc(-c2c(OC)cccc2OC)n(-c2ccc(F)cc2)n1 [compound 137]	< 10 µM
CCOC(=O)CCNC(=O)C[C@H](CC(C)C)NC(=O)c1cc(-c2c(OC)cccc2OCc2ccccc2)n(C2CCCCC2)n1 [compound 138, Ethyl 3-((3S)-3-(5-(2-(benzyloxy)-6-methoxyphenyl)-1-cyclohexyl-1H-pyrazole-3-carboxamido)-5-methylhexanamido)propanoate]	< 10 µM
COc1cccc(OC)c1-c1cc(C(=O)N[C@H](CC(=O)NCc2ncco2)CC(C)C)nn1CC(C)C [compound 140, (S)-5-(2,6-Dimethoxyphenyl)-1-isobutyl-N-(5-methyl-1-((oxazol-2-ylmethyl)amino)-1-oxohexan-3-yl)-1H-pyrazole-3-carboxamide]	< 10 µM
CNC(=O)C[C@H](CC(C)C)NC(=O)c1cc(-c2c(OC)cccc2OC)n(CC(C)C)n1 [compound 141, (S)-5-(2,6-Dimethoxyphenyl)-1-isobutyl-N-(5-methyl-1-(methylamino)-1-oxohexan-3-yl)-1H-pyrazole-3-carboxamide]	< 10 µM
COc1cccc(OC)c1-c1cc(C(=O)N[C@H](CC(=O)NCCO)CC(C)C)nn1CC(C)C [compound 142, (S)-5-(2,6-Dimethoxyphenyl)-N-(1-((2-hydroxyethyl)amino)-5-methyl-1-oxohexan-3-yl)-1-isobutyl-1H-pyrazole-3-carboxamide]	< 10 µM
CCCCNC(=O)C[C@@H](CC(C)C)NC(=O)c1cc(-c2c(OC)cccc2OC)n(CC(C)C)n1 [compound 153]	< 10 µM
CCCCCCNC(=O)C[C@H](CC(C)C)NC(=O)c1cc(-c2c(OC)cccc2OC)n(CC(C)C)n1 [compound 154, (S)-5-(2,6-Dimethoxyphenyl)-N-(1-(hexylamino)-5-methyl-1-oxohexan-3-yl)-1-isobutyl-1H-pyrazole-3-carboxamide]	< 10 µM
COc1cccc(OC)c1-c1cc(C(=O)N[C@H](CC(=O)NCC2CCCCC2)CC(C)C)nn1CC(C)C [compound 155, (S)—N-(1-((Cyclohexylmethyl)amino)-5-methyl-1-oxohexan-3-yl)-5-(2,6-dimethoxyphenyl)-1-isobutyl-1H-pyrazole-3-carboxamide]	< 10 µM
CCCCCNC(=O)C[C@H](CC(C)C)NC(=O)c1cc(-c2c(OC)cccc2OC)n(CC(C)C)n1 [compound 156, (S)-5-(2,6-Dimethoxyphenyl)-1-isobutyl-N-(5-methyl-1-oxo-1-(pentylamino)hexan-3-yl)-1H-pyrazole-3-carboxamide]	< 10 µM
CCCNC(=O)C[C@H](CC(C)C)NC(=O)c1cc(-c2c(OC)cccc2OC)n(CC(C)C)n1 [compound 157, (S)-5-(2,6-dimethoxyphenyl)-1-isobutyl-N-(5-methyl-1-oxo-1-(propylamino)hexan-3-yl)-1H-pyrazole-3-carboxamide]	< 10 µM
CCNC(=O)C[C@H](CC(C)C)NC(=O)c1cc(-c2c(OC)cccc2OC)n(CC(C)C)n1 [compound 161, (S)-5-(2,6-Dimethoxyphenyl)-N-(1-(ethylamino)-5-methyl-1-oxohexan-3-yl)-1-isobutyl-1H-pyrazole-3-carboxamide]	< 10 µM
COc1cccc(OC)c1-c1cc(C(=O)N[C@H](CC(=O)NC(C)C)CC(C)C)nn1CC(C)C [compound 162]	< 10 µM
COc1cccc(OC)c1-c1cc(C(=O)N[C@H](CC(=O)Nc2ccc(F)cc2)CC(C)C)nn1CC(C)C [compound 163, (S)-5-(2,6-Dimethoxyphenyl)-N-(1-((4-fluorophenyl)amino)-5-methyl-1-oxohexan-3-yl)-1-isobutyl-1H-pyrazole-3-carboxamide]	< 10 µM
COC(=O)C[C@H](CC(C)C)NC(=O)c1cc(-c2c(OC)cccc2OC)n(CC(C)C)n1 [compound 164]	< 10 µM

SMILES	EC50
COc1c(F)cc(F)c(OC)c1-c1cc(C(=O)N[C@H](CC(=O)O)CC(C)C)nn1CC(C)C [compound 167]	< 10 µM
CCCCNC(=O)C[C@H](CC(C)C)NC(=O)c1cc(-c2c(OC)c(F)cc(F)c2OC)n(CC(C)C)n1 [compound 168]	< 10 µM
CCCN(C)C(=O)C[C@H](CC(C)C)NC(=O)c1cc(-c2c(OC)cccc2OC)n(CC(C)C)n1 [compound 171]	< 10 µM
COc1cccc(OC)c1-c1cc(C(=O)N[C@H](CC(=O)NC2CC2)CC(C)C)nn1CC(C)C [compound 172]	< 10 µM
COc1cccc(OC)c1-c1cc(C(=O)N[C@H](CC(=O)NCC(=O)O)CC(C)C)nn1CC(C)C [compound 174]	< 10 µM
COc1cccc(OC)c1-c1cc(C(=O)N[C@H](CC(=O)NCC(N)=O)CC(C)C)nn1CC(C)C [compound 175]	< 10 µM
CNC(=O)CNC(=O)C[C@H](CC(C)C)NC(=O)c1cc(-c2c(OC)cccc2OC)n(CC(C)C)n1 [compound 176]	< 10 µM
COc1cccc(OC)c1-c1cc(C(=O)N[C@H](CC(=O)O)CC(C)C)nn1CC1CC1 [compound 181]	< 10 µM
COc1cccc(OC)c1-c1cc(C(=O)N[C@H](CC(=O)O)CC(C)C)nn1C1CCCC1 [compound 182]	< 10 µM
COC(=O)CNC(=O)C[C@H](CC(C)C)NC(=O)c1cc(-c2c(OC)cccc2OC)n(CC2CC2)n1 [compound 183]	< 10 µM
COC(=O)CNC(=O)C[C@H](CC(C)C)NC(=O)c1cc(-c2c(OC)cccc2OC)n(C2CCCC2)n1 [compound 184]	< 10 µM
COc1cccc(OC)c1-c1cc(C(=O)N[C@H](CC(=O)NC2CCCC2)CC(C)C)nn1CC(C)C [compound 185]	< 10 µM
CCCn1nc(C(=O)N[C@H](CC(=O)NCC(=O)OC)CC(C)C)cc1-c1c(OC)cccc1OC [compound 186]	< 10 µM
COC(=O)CNC(=O)C[C@H](CC(C)C)NC(=O)c1cc(-c2c(OC)cccc2OC)n(CC(C)(C)C)n1 [compound 187]	< 10 µM
COC(=O)CNC(=O)[C@H](CC(C)C)NC(=O)c1cc(-c2c(OC)cccc2OC)n(CC(C)C)n1 [compound 188]	< 10 µM
COC(=O)CNC(=O)[C@H](CC(C)C)NC(=O)c1cc(-c2c(OC)cccc2OC)n(C2CCCCC2)n1 [compound 189]	< 10 µM
CCOC(=O)CCNC(=O)[C@H](CC(C)C)NC(=O)c1cc(-c2c(OC)cccc2OC)n(CC(C)C)n1 [compound 191]	< 10 µM
COC(=O)CNC(=O)[C@H](CC1CCCCC1)NC(=O)c1cc(-c2c(OC)cccc2OC)n(CC(C)C)n1 [compound 198]	< 10 µM
COC(=O)CNC(=O)[C@H](Cc1ccccc1)NC(=O)c1cc(-c2c(OC)cccc2OC)n(CC(C)C)n1 [compound 205]	< 10 µM
CCCC[C@H](NC(=O)c1cc(-c2c(OC)cccc2OC)n(CC(C)C)n1)C(=O)NCC(=O)OC [compound 212]	< 10 µM
COC(=O)CNC(=O)[C@H](CC1CCCCC1)NC(=O)c1cc(-c2cc(OC)ccc2OC)n(CC(C)C)n1 [compound 217]	< 10 µM

Same assay, conditions: mean based on three runs; read-out: mean activity (EC50)

SMILES	EC50
COC(=O)CNC(=O)[C@H](CC1CCCCC1)NC(=O)c1cc(-c2c(OC)cccc2OC)n(CC(C)C)n1 [compound 198]	0.053 µM
